Test: Microscope observation of taurine crystals (Test Example 1)
Format: physicochemical
Conditions: observed with a microscope; for Maximum particle size (length) μm: length = major axis; for Maximum particle size (thickness) μm: thickness = minor axis

Row | Compound | Crystalline form | Maximum particle size (length) μm | Maximum particle size (thickness) μm
1 | NCCS(=O)(=O)O [Comparative Example 1, taurine] | Massive | 700 μm | 160 μm
2 | NCCS(=O)(=O)O [Comparative Example 2, taurine] | Massive | 2000 μm | 300 μm
3 | NCCS(=O)(=O)O [Comparative Example 3, taurine, reference compound] | Massive | 6740 μm | 1680 μm
4 | NCCS(=O)(=O)O [Example 1, taurine] | Columnar | 280 μm | 145 μm
5 | NCCS(=O)(=O)O [Example 2, taurine] | Columnar | 150 μm | 80 μm
6 | NCCS(=O)(=O)O [Example 3, taurine] | Columnar | 150 μm | 100 μm
7 | NCCS(=O)(=O)O [Example 4, taurine] | Columnar | 100 μm | 70 μm
8 | NCCS(=O)(=O)O [Example 5, taurine] | Needle- | 800 μm | 55 μm
9 | NCCS(=O)(=O)O [Example 6, taurine] | Needle- | 250 μm | 25 μm
10 | NCCS(=O)(=O)O [Example 7, taurine] | Needle- | 250 μm | 20 μm
11 | NCCS(=O)(=O)O [Example 8, taurine] | Needle- | 220 μm | 30 μm
12 | NCCS(=O)(=O)O [Example 9, taurine] | Needle- | 150 μm | 40 μm
13 | NCCS(=O)(=O)O [Example 10, taurine] | Needle- | 720 μm | 25 μm
14 | NCCS(=O)(=O)O [Example 11, taurine] | Needle- | 370 μm | 20 μm
